The text below walks through data of patent US20030194373A1, “Angiogenesis targeting molecules” (priority 1998, published 2003).

One assay deals with angiogenesis. To be noted: compared with fumagillin; cited from earlier work.
The next assay addresses KDR/Flk-1. The following applies: KDR/Flk-1 receptor; read-out: binding affinity to VEGF (KDR/Flk-1); cited from earlier work.
For the next assay, the target named is Flt-1 (Homo sapiens, UniProt P17948). The following applies: Flt-1 receptor; read-out: binding affinity to VEGF (Flt-1); cited from earlier work.
Sequence of Flt-1 (P17948 27-1338, species assumed): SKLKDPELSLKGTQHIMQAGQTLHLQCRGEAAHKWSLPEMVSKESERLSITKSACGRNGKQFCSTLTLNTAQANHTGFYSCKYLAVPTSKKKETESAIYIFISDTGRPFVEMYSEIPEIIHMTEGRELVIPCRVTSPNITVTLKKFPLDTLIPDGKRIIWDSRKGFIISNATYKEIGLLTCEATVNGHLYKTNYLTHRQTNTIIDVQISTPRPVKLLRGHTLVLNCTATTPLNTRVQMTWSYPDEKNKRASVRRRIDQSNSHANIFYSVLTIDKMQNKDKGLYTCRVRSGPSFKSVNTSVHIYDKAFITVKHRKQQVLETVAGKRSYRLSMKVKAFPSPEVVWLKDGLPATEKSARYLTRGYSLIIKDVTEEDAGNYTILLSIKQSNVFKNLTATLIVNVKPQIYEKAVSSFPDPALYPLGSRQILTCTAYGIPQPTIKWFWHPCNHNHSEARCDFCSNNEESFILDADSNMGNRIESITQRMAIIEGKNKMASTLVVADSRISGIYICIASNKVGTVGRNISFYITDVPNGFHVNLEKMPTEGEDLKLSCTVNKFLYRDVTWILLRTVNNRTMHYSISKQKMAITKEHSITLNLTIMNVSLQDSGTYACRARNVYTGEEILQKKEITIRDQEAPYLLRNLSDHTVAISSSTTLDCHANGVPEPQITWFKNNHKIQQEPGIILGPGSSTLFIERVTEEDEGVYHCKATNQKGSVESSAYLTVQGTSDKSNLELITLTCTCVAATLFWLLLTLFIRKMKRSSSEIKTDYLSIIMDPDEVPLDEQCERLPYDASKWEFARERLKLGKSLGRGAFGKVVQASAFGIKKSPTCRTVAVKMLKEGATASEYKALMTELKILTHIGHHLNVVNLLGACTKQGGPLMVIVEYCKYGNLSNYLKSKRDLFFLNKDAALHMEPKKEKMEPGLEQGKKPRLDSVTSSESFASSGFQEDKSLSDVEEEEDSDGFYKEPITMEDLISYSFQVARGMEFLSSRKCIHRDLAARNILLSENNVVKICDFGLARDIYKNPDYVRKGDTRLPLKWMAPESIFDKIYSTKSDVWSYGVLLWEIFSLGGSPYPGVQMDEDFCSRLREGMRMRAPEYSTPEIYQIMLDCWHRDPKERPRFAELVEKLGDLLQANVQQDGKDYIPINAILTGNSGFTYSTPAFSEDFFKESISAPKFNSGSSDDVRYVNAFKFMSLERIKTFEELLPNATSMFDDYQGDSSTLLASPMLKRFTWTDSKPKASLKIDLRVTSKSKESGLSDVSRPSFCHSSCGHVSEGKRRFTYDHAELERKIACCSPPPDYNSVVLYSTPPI
Another assay deals with T1, αvβ3 receptor (Homo sapiens, UniProt P05106+P06756).
T1 construct: The HUVECs are known to express KDR, Flt-1 and αvβ3 receptors; host or cells: HUVEC
T1 sequence (P06756 31-889 limits assumed): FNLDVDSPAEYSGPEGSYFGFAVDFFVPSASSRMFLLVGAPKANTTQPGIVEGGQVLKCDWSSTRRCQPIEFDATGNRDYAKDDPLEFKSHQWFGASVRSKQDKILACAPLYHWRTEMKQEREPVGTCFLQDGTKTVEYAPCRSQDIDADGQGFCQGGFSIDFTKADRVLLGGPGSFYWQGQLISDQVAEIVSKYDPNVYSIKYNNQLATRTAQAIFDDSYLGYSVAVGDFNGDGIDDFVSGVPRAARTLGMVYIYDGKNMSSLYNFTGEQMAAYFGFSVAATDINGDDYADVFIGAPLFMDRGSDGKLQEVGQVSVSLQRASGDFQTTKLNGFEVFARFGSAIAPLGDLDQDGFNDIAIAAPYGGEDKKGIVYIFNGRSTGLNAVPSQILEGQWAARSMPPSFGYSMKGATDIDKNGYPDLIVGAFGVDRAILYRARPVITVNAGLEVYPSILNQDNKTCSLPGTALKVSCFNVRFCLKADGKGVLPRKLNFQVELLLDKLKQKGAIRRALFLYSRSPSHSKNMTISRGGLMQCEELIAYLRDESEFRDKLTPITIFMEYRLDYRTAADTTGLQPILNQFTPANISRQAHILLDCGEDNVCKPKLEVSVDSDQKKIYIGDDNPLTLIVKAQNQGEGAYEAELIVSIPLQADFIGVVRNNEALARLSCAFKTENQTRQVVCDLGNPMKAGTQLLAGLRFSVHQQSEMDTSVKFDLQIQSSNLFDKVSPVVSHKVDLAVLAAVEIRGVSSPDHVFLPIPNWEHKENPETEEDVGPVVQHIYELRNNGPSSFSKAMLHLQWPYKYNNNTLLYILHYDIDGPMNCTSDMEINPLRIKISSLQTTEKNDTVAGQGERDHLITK
T1 sequence (P06756 891-1048 partner limits assumed): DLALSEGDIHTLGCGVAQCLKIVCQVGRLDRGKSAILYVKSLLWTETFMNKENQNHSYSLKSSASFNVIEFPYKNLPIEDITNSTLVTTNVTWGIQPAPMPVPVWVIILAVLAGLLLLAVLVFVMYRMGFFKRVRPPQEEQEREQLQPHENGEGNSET
T1 sequence (P05106 27-788): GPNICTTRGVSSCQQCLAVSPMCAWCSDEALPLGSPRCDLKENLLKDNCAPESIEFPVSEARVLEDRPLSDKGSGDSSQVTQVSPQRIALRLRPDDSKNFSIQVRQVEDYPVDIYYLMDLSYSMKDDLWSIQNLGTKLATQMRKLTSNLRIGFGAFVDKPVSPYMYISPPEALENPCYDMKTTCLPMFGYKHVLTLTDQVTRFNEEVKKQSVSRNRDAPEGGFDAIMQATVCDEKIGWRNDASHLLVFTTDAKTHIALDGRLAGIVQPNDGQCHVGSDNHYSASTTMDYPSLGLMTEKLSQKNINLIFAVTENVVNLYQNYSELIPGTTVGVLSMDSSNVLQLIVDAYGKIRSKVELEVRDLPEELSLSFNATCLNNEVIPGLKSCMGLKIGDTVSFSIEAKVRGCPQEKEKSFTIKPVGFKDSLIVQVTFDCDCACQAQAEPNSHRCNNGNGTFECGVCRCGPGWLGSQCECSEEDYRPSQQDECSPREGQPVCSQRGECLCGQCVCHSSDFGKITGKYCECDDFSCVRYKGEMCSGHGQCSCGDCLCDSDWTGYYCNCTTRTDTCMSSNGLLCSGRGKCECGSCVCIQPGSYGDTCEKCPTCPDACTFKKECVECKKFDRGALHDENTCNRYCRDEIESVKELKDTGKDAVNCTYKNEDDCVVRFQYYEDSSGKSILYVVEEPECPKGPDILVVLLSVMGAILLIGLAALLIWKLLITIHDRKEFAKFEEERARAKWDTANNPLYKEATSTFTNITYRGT
In words: Cell adhesion assay with HUVECs and vitronectin. It is filed as cell-based. To be noted: HUVECs, FIG. 5. Here is the method: HUVECs (BioWhittaker) were cultured on gelatin-coated plates in MCDB 131 media supplemented with 15% fetal bovine serum (FBS), 4 ng/ml basic fibroblast growth factor, 10 ng/ml epidermal growth factor, and 10 U/ml heparin; cells were used in experiments at passages 2-10. The HUVECs are known to express KDR, Flt-1 and αvβ3 receptors.
HUVECs were harvested using 15 mM EDTA pH8.0, washed 3 times, and resuspended in serum-free media. 4×10^4 cells were preincubated either alone (control) or with test compound for 15 minutes at 37° C., then incubated in 96 well plates coated with known integrin ligand—eg. 5 μg/ml vitronectin (Sigma Aldrich Canada, Oakville, ON) coated 3 hours., 37° C., or RGD-ECM precoated plates (Chemicon International, Temecula, Calif.)—and blocked with 1% bovine serum albumin (BSA). Cells were allowed to adhere for 1-2 hours at 37° C. Unbound cells were removed by washing with phosphate-buffered saline (PBS) and the remaining adherent cells were fixed with 2% paraformaldehyde (30 minutes, room temperature). Adhesion was quantitated by cell staining with crystal violet followed by dye extraction with 10% acetic acid. The absorbance was measured at 595 nm in a microplate reader (Bio-Rad Laboratories, Richmond, Calif.). The sequence RGDS was used as a positive control, and RGES was used as a negative control. […]

With `CO[C@@H]1C(=O)CC[C@]2(CO2)[C@@]1(O)[C@@]1(C)O[C@@H]1CC=C(C)C` [Ovalicin], in the assay with angiogenesis, the “potency as inhibitor of angiogenesis relative to fumagillin” value is reported as 50 times.
Turning to VEGF, the Kd on KDR/Flk-1 was 125 pM; at Flt-1, 25 pM.
As to R-G-D-S [RGDS, reference compound], the “effect on HUVEC binding to vitronectin / affinity for αvβ3 receptor” value at αvβ3 receptor (vitronectin coated plate) was “eliminated the binding”. This compound also showed an inhibition of binding at αvβ3 receptor (vitronectin) of 100%.
In the case of `CO[C@@H]1[C@H](OC(=O)NC(=O)CCl)CC[C@]2(CO2)[C@H]1[C@@]1(C)O[C@@H]1CC=C(C)C` [TNP-470, O-(chloroacetylcarbamoyl)fumagillol], the “potency as inhibitor of angiogenesis relative to fumagillin” value in the assay on angiogenesis is reported as 50 times.
